Source: US9000186B2, “Ring-fused heterocyclic derivative” (Kyowa Hakko Kirin Co., Ltd., priority 2011, dated 2015)

Each compound was assayed against T1, human Cav3.2 T-type Ca2+ channel (Homo sapiens, UniProt O95180) (assay: Inhibitory effect for intracellular calcium response via Cav3.2 T-type Ca2+ channels (FLIPR Calcium 3 Assay Kit)). Conditions: not given.
T1 construct: expressed in transfected cells; host or cells: KJMGER8 cells (Namalwa cell-derived cell line)
Assay type: cell-based

T1 sequence (O95180 whole entry): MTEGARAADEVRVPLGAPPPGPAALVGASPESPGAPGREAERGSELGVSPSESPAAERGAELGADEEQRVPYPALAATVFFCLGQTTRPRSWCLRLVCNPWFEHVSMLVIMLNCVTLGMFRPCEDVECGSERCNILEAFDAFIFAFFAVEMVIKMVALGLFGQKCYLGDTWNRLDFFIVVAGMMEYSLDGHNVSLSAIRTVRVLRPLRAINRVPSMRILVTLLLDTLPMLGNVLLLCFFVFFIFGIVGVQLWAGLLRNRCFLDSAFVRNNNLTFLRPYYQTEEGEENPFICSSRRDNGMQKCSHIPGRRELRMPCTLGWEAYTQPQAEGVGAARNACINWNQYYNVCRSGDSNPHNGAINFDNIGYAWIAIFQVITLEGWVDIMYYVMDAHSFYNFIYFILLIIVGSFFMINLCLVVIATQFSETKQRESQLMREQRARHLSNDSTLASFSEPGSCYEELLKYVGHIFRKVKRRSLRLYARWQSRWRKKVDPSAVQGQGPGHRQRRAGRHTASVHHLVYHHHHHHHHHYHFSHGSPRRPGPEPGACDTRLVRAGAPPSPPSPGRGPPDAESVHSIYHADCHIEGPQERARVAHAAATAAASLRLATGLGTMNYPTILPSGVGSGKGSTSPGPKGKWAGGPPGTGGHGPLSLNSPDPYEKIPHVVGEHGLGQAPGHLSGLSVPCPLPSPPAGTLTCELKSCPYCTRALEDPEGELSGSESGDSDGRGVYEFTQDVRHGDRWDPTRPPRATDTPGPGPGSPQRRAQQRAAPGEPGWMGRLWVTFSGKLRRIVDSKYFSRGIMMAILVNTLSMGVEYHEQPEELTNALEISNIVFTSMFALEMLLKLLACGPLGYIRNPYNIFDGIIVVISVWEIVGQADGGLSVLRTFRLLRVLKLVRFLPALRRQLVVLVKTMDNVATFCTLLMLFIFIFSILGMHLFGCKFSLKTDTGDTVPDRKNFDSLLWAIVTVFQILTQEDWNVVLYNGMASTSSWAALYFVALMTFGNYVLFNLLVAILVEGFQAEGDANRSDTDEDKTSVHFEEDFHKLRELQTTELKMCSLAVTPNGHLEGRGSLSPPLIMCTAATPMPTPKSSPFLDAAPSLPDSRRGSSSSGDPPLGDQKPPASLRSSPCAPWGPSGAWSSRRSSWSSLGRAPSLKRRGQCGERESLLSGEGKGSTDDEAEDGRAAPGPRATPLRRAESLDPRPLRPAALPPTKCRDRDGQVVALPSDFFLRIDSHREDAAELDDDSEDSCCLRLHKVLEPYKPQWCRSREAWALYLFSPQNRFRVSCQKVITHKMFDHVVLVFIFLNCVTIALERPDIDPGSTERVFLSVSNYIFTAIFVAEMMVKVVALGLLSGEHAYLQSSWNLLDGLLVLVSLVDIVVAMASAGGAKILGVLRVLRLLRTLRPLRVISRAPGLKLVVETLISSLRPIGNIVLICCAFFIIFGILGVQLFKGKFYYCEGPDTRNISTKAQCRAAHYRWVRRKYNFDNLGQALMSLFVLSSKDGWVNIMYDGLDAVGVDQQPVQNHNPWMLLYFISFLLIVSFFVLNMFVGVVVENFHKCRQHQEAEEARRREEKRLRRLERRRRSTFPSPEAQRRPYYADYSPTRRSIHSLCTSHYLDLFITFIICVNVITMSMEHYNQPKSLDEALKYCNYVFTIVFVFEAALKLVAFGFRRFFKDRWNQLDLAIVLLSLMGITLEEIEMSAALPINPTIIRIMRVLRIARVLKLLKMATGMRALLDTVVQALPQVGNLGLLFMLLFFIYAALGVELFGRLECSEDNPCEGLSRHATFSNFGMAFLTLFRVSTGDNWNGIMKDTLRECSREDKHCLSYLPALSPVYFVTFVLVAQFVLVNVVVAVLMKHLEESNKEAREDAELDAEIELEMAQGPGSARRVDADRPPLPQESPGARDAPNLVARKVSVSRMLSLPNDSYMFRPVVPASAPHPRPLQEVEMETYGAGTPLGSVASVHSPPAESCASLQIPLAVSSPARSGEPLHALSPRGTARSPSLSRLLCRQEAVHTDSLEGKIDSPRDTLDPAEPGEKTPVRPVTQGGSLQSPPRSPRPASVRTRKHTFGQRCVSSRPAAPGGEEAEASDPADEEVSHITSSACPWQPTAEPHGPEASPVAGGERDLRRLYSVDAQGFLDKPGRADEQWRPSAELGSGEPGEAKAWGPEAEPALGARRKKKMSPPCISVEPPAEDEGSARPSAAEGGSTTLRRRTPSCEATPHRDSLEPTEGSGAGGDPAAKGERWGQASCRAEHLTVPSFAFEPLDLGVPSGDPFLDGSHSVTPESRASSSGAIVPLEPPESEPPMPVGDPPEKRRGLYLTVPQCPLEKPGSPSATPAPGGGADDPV

Structure (SMILES)	IC50
O=C(Nc1ccccc1)c1ccn2c(S(=O)(=O)N3CC(F)(F)C3)c(C3CC3)nc2c1 [Compound 138, 2-Cyclopropyl-3-(3,3-difluoroazetidin-1-ylsulfonyl)-N-phenylimidazo[1,2-a]pyridine-7-carboxamide]	< 100 nM
CC(C)(c1nc2cc(C(=O)NC3CCOCC3)c(Cl)cn2c1CC1CCC(F)(F)CC1)C(F)(F)F [Compound 115, 6-Chloro-3-(4,4-difluorocyclohexylmethyl)-N-(tetrahydro-2H-pyran-4-yl)-2-(1,1,1-trifluoro-2-methylpropan-2-yl)imidazo[1,2-a]pyridine-7-carboxamide]	< 100 nM
CCN(CC)C(=O)c1ccn2c(SC3CCCCC3)c(C(C)C)nc2c1 [Compound 12, 3-Cyclohexylthio-N,N-diethyl-2-isopropylimidazo[1,2-a]pyridine-7-carboxamide]	< 100 nM
CC(C)c1nc2cc(C(=O)N3CCc4ccccc43)ccn2c1S(=O)(=O)N1CCCCC1 [Compound 136, Indolin-1-yl{2-isopropyl-3-(piperidin-1-ylsulfonyl)imidazo[1,2-a]pyridin-7-yl}methanone]	< 100 nM
O=C(NC1CC=CCC1)c1ccn2c(CC3CCC(F)(F)CC3)c(C(F)(F)F)nc2c1 (stereo not shown) [Compound 180, N-(Cyclohex-3-enyl)-3-(4,4-difluorocyclohexylmethyl)-2-trifluoromethylimidazo[1,2-a]pyridine-7-carboxamide]	< 100 nM
Cc1cc(C(=O)N(C)C2CCOCC2)cc2nc(C(F)(F)F)c(CC3CCC(F)(F)CC3)n12 [Compound 91, 3-(4,4-Difluorocyclohexylmethyl)-N,5-dimethyl-N-(tetrahydro-2H-pyran-4-yl)-2-trifluoromethylimidazo[1,2-a]pyridine-7-carboxamide]	< 100 nM
CC(C)CC(=O)N(C)c1ccn2c(CC3CCCCC3)c(C(C)(C)C)nc2c1 [Compound 19, N-(2-tert-Butyl-3-cyclohexylmethylimidazo[1,2-a]pyridin-7-yl)-N,3-dimethylbutanamide]	< 100 nM
CC(C)(C)c1nc2cc(C(=O)NCc3ccccc3)ccn2c1CC1CCCCC1 [Compound 16, N-Benzyl-2-tert-butyl-3-cyclohexylmethylimidazo[1,2-a]pyridine-7-carboxamide]	< 100 nM
CC(C)c1nc2cc(C(=O)Nc3ccncc3)ccn2c1Cc1ccccc1 [Compound 37, 3-Benzyl-2-isopropyl-N-(pyridin-4-yl)imidazo[1,2-a]pyridine-7-carboxamide]	< 100 nM
Cc1cc(C(=O)NOC2CCOCC2)cc2nc(C(F)(F)F)c(CC3CCC(F)(F)CC3)n12 [Compound 90, 3-(4,4-Difluorocyclohexylmethyl)-5-methyl-N-(tetrahydro-2H-pyran-4-yloxy)-2-trifluoromethylimidazo[1,2-a]pyridine-7-carboxamide]	< 100 nM
Cc1c(I)c(C(=O)Nc2ccccc2)cc2nc(C(F)(F)F)c(CC3CCC(F)(F)CC3)n12 [Compound 125, 3-(4,4-Difluorocyclohexylmethyl)-6-iodo-5-methyl-N-phenyl-2-trifluoromethylimidazo[1,2-a]pyridine-7-carboxamide]	< 100 nM
Cc1c(C(=O)Nc2ccncc2)ccn2c(CC3CCCCC3)c(C(C)(C)C)nc12 [Compound 42, 2-tert-Butyl-3-cyclohexylmethyl-8-methyl-N-(pyridin-4-yl)imidazo[1,2-a]pyridine-7-carboxamide]	< 100 nM
Cc1c(Cl)c(C(=O)NC2CCOCC2)cc2nc(C(F)(F)F)c(CC3CCC(F)(F)CC3)n12 [Compound 124, 6-Chloro-3-(4,4-difluorocyclohexylmethyl)-5-methyl-N-(tetrahydro-2H-pyran-4-yl)-2-trifluoromethylimidazo[1,2-a]pyridine-7-carboxamide]	< 100 nM
CC(C)c1nc2cc(C(=O)Nc3nccs3)ccn2c1COC1CCCCC1 [Compound 25, 3-Cyclohexyloxymethyl-2-isopropyl-N-(thiazol-2-yl)imidazo[1,2-a]pyridine-7-carboxamide]	< 100 nM
Cc1cc(C(=O)NCC2(F)CCOCC2)cc2nc(C(F)(F)F)c(CC3CCC(F)(F)CC3)n12 [Compound 87, 3-(4,4-Difluorocyclohexylmethyl)-N-{(4-fluorotetrahydro-2H-pyran-4-yl)methyl}-5-methyl-2-trifluoromethylimidazo[1,2-a]pyridine-7-carboxamide]	< 100 nM

Same assay, conditions: human Cav3.2-expressing KJMGER8 cells (Namalwa-derived); calcium response induced by 5 mmol/L CaCl2; normalised to 3 μmol/L mibefradil; read-out: IC50 for the human Cav3.2 T-type Ca2+ current

Structure (SMILES)	IC50
C#CC(C)(C)NS(=O)(=O)c1c(C(C)C)nc2cc(C(=O)Nc3ccccc3)c(Cl)cn12 [Compound 179, 6-Chloro-2-isopropyl-3-{N-(2-methylbut-3-yne-2-yl)sulfamoyl}-N-phenylimidazo[1,2-a]pyridine-7-carboxamide]	< 100 nM
CC(C)c1nc2cc(C(=O)NOCc3ccccc3)ccn2c1S(=O)(=O)N1CC(F)(F)C1 [Compound 135, N-(Benzyloxy)-3-(3,3-difluoroazetidin-1-ylsulfonyl)-2-isopropylimidazo[1,2-a]pyridine-7-carboxamide]	< 100 nM
O=C(Nc1ccccc1)c1ccn2c(S(=O)(=O)N3CC(F)(F)C3)c(C(F)(F)F)nc2c1 [Compound 146, 3-(3,3-Difluoroazetidin-1-ylsulfonyl)-N-phenyl-2-trifluoromethylimidazo[1,2-a]pyridine-7-carboxamide]	< 100 nM
CC(C)c1nc2cc(-c3nc4ccccc4[nH]3)c(Cl)cn2c1S(=O)(=O)N1CC(F)(F)C1 [Compound 170, 2-{6-Chloro-3-(3,3-difluoroazetidin-1-ylsulfonyl)-2-isopropylimidazo[1,2-a]pyridin-7-yl}-1H-benzimidazole]	< 100 nM
Cc1cn2c(S(=O)(=O)C3CCCCC3)c(C(C)C)nc2cc1C(=O)Nc1ccccc1 [Compound 163, 3-(Cyclohexylsulfonyl)-2-isopropyl-6-methyl-N-phenyl-imidazo[1,2-a]pyridine-7-carboxamide]	< 100 nM
CS(=O)(=O)c1nc2cc(C(=O)Nc3ccccc3)ccn2c1S(=O)(=O)N1CCC(F)(F)CC1 [Compound 143, 3-(4,4-Difluoropiperidin-1-ylsulfonyl)-2-(methylsulfonyl)-N-phenylimidazo[1,2-a]pyridine-7-carboxamide]	< 100 nM
Cc1cc(NC(=O)c2cc3nc(C(C)C)c(S(=O)(=O)NC(C)(C)C)n3cc2Cl)on1 [Compound 157, 3-(N-tert-Butylsulfamoyl)-6-chloro-2-isopropyl-N-(3-methylisooxazol-5-yl)imidazo[1,2-a]pyridine-7-carboxamide]	< 100 nM
CC(C)c1nc2cc(C(=O)Nc3ccccc3)c(Cl)cn2c1S(=O)(=O)Nc1ccccc1 [Compound 155, 6-Chloro-2-isopropyl-N-phenyl-3-(N-phenylsulfamoyl)imidazo[1,2-a]pyridine-7-carboxamide]	< 100 nM
CS(=O)(=O)c1cccc(NC(=O)c2ccn3c(CC4CCC(F)(F)CC4)c(C(F)(F)F)nc3c2)c1 [Compound 48, 3-(4,4-Difluorocyclohexylmethyl)-N-(3-methanesulfonylphenyl)-2-trifluoromethylimidazo[1,2-a]pyridine-7-carboxamide]	< 100 nM
O=C(Nc1ccccc1)c1cc2nc(C(F)(F)F)c(CC3CCC(F)(F)CC3)n2cc1Cl [Compound 107, 6-Chloro-3-(4,4-difluorocyclohexylmethyl)-N-phenyl-2-trifluoromethylimidazo[1,2-a]pyridine-7-carboxamide]	< 100 nM
